Source: patent publication US7211246B2, “Compositions comprising oestrone-3-0-sulphamate and trail (TNF-related apoptosis inducing ligand)” (Sterix Limited, priority 2001, dated 2007)

Legend:
caspase 8 = assay: Western blot of caspase 8 activation in Cal51 cells; format: cell-based
Description: (§1) FIG. 3. Effect of 2-MeOE2bisMATE on caspase 8 and caspase 3 activation and PARP cleavage in Cal51 cells. Western blots showing caspase 8 and caspase 3 unprocessed and active fragments and PARP uncleaved and cleaved products following treatment of Cal51 cells with solvent, 0.05, 0.5 or 5 μM 2-MeOE2bisMATE for 48 hours.
(§2) FIG. 5. Effect of 2-MeOE2bisMATE on the timing of caspase 3 and caspase 8 activation and PARP cleavage in Cal51 cells. Western blots showing caspase 3, caspase 8 and PARP unprocessed and cleaved products at 0, 8, 16, 24 and 48 hrs following treatment of Cal51 cells with 5 μM 2-MeOE2bisMATE for 48 hrs or untreated for 48 hrs (48NT).
(§3) To determine whether caspases might play a role in cell death induced by 2-MeOE2bisMATE and other sulfamoylated oestrogen derivatives, we examined the expression of caspase 3, caspase 8 and PARP by immunoblotting (FIG. 3). […]
(§4) There are two major pathways of apoptosis; cell surface death receptors activate caspases directly via activation of caspase 8 whereas other apoptotic stimuli operate via triggering the release of cytochrome c from mitochondria which subsequently activates caspases. […] Caspase 3 activation was first detected at 16 hours and as expected was followed by PARP cleavage at 24 hours (FIG. 5). Caspase 8 activation was a relatively late event, first detected at 48 hours. […]

caspase 3 = assay: Western blot of caspase 3 activation in Cal51 cells; format: cell-based
Description: as §1, §2
FIG. 7. Effect of combined treatment of 2-EtEMATE or 2-MeOEMATE and TRAIL on caspase 3 activation in Cal51 cells. Western blots showing caspase 3 activation following treatment of Cal51 cells for 48 hours with solvent, 250 ng/ml TRAIL and 5 μM 2-EtEMATE or 2-MeOEMATE in the presence or absence of 250 ng/ml TRAIL. PCNA levels represent corresponding loading controls. 1, control; 2, THF solvent; 3, TRAIL; 4, 2-EtEMATE; 5,2-EtEMATE+TRAIL; 6, control; 7, THF solvent; 8, TRAIL; 9, 2-MeOEMATE; 10, 2-MeOEMATE+TRAIL
To determine whether caspases might play a role in cell death induced by 2-MeOE2bisMATE and other sulfamoylated oestrogen derivatives, we examined the expression of caspase 3, caspase 8 and PARP by immunoblotting (FIG. 3). […] Therefore, cell death induced by the 2-MeOE2bisMATE in Cal51 cells is associated with caspase activation.
There are two major pathways of apoptosis; cell surface death receptors activate caspases directly via activation of caspase 8 whereas other apoptotic stimuli operate via triggering the release of cytochrome c from mitochondria which subsequently activates caspases. Both pathways ultimately result in activation of caspase 3 and PARP cleavage. Since activation of caspase 8 is an indicator for the direct involvement of death receptors, it is important to determine whether activation of caspase 8 by 2-MeOE2bisMATE precedes or follows caspase 3 activation. We therefore performed time course experiments in Cal51 cells treated with 2-MeOE2bisMATE to order the activation events. Caspase 3 activation was first detected at 16 hours and as expected was followed by PARP cleavage at 24 hours (FIG. 5). Caspase 8 activation was a relatively late event, first detected at 48 hours. Therefore activation of caspase 3 induced by 2-MeOE2bisMATE precedes activation of caspase 8.
To further explore the mechanism for co-operation between sulfamoylated oestrones and TRAIL, we analysed activation of caspase 3 (FIG. 7). […] Therefore, sulfamoylated oestrones and TRAIL cooperate to activate caspase 3.

PARP = assay: Western blot of PARP cleavage in Cal51 cells; format: cell-based
Description: as §1, §2, §3, §4

CAL51 cells = assay: TUNEL assay of apoptosis in Cal51 cells with or without caspase inhibitor ZVAD-fmk; format: cell-based; conditions: 5 μM 2-MeOE2bisMATE with 50 μM zVAD-fmk, 3 days
Description: FIG. 4. Effect of the caspase inhibitor ZVAD-fmk on 2-MeOE2bisMATE induced apoptosis in Cal51 cells. TUNEL assay showing % apoptosis of cells untreated or following treatment with 50 μM ZVAD-fmk, 5 μM 2-MeOE2bisMATE or 5 μM 2-MeOE2bisMATE and 50 μM zVAD-fmk for 3 days. Histograms are overlays for control cells stained in the absence of TdT enzyme (bold) or cells stained with TUNEL reaction mix (open).
To determine whether the activation of caspases was important for cell killing, we tested whether a broad range chemical caspase inhibitor interfered with apoptosis. Cells were treated with 2-MeOE2bisMATE in the presence and absence of the caspase inhibitor ZVAD-fmk and cell death was analysed using the TUNEL assay which measures the DNA cleavage associated with apoptosis. The induction of TUNEL positive cells by 2-MeOE2bisMATE was reduced by 60% in the presence of zVAD-fmk (FIG. 4). Therefore 2-MeOE2bisMATE requires activation of caspases for optimal induction of apoptosis.

DR5 protein = assay: Western blot of DR5 protein levels in Cal51 cells; format: cell-based; conditions: 48 hours, 0.05, 0.5 and 5 μM
Description: FIG. 6. […] Western blot showing DR5 protein levels following treatment of Cal51 cells for 48 hours with 0, 0.05, 0.5 and 5 μM of 2-MeOEMATE or 2-EtEMATE. PCNA levels represent corresponding loading controls.
Protein lysates were prepared from CAL51 cells treated with various compounds and analysed for expression of DR5 by immunoblotting (FIG. 6).

[1] = in vivo; cited from earlier work
[2] = Cal51 cells, 5 μM, time course 0-48 hrs
[3] = Cal51 cells, 0.05, 0.5 or 5 μM, 48 hours

SMILES | time at which caspase 8 activation was first detected (caspase 8; [2]) | activation of caspase 8 (caspase 8; [3]) | time at which caspase 3 activation was first detected (caspase 3; [2]) | activation of caspase 3 (caspase 3; [3]) | activation of caspase 3, synergistic effect with TRAIL (caspase 3; in combination with TRAIL) | time of PARP cleavage (PARP; [2]) | PARP cleavage (PARP; [3]) | reduction of induction of TUNEL positive cells in the presence of zVAD-fmk (CAL51 cells) | DR5 protein levels by western blot (DR5 protein) | half-life in blood [1]
COc1cc2c(cc1OS(N)(=O)=O)CCC1C2CCC2(C)C(OS(N)(=O)=O)CCC12 (stereo not shown) [2-MeOE2bisMATE, 2-methoxyoestrone-3-O,17-bissulphamate] | 48 h | dose dependent activation | 16 h | dose dependent activation | increased activation of caspase 3 | 24 h | Cleavage of PARP | 60% | no significant change | 
C[C@]12CC[C@@H]3c4ccc(OS(=O)(=O)O)cc4CC[C@H]3[C@@H]1CCC2=O [E1S, oestrone sulphate] |  |  |  |  |  |  |  |  |  | 10 to 12 h
